According to EP1263420B1 (priority 2000, dated 2001):

Tested on: RARs
Assay: RAR induction in lung of A/J mice exposed to isotretinoin aerosols, all three RARs
Format: in vivo
Conditions: lungs exposed to mid levels of isotretinoin, urethane-treated mice
Description: Antibodies: Polyclonal antibodies to RARα, β and γ (Santa Cruz Biotechnology Inc., San Francisco, CA) were used with a BM Chemiluminescence Western Blotting Kit (Mouse/Rabbit) (Boehringer Mannheim Corporation, Indianapolis).
Experimental Design: Five lungs each from the urethane-treated vehicle, low dose, and mid dose animals were snap frozen in liquid nitrogen and stored at -70°C for determination of RARs α, β and γ by Western Blot Analysis. In addition, five lungs each from urethane-injected unexposed mice, and untreated control mice were designated for Westerns. The lungs were homogenized and the RARs were determined by standard Western Blotting (21, 22). Due to deaths early in the high dose experiment, no lungs were available for Western Blot Analysis for the high dose exposures, i.e. all tissue was used for lesion quantitation purposes.
Samples: Lung tissue was collected, frozen on dry ice and kept at -70°C until used. A 500 mg portion was diced in small pieces and homogenized in 300 µl of cold PBS using a hand held homogenizer for 2-3 min. Samples were centrifuged at 500 rpm for 5 min or until the supernatant was clear. The pellet was suspended in 400 µl of cold Buffer A [2 µl 0.5 M EDTA, 10 µl 1 mM EGTA, 50 µl 100 mM PMSF, 10 µl 1M DTT, 10 ml (10 mM HEPES pH 7.9 + 10 mM KCl)], and left at ice temperature for 15 min. […]

## CC1=C(/C=C/C(C)=C/C=C/C(C)=C\C(=O)O)C(C)(C)CCC1 [13-cis RA, 13-cis-Retinoic Acid]
  induction of all three RARs: at least three fold
